Consider two compounds from US10610517B2, “Compositions and methods for treating neoplastic diseases” (Celgene International II Sàrl, priority 2004, dated 2020).

Each structure is given as a SMILES string.

In data set [1] the test system is normal CCD-27sk fibroblasts. As to the kind of experiment: cells. The conditions noted are these: Homo sapiens. The class given is cell-based, human. The text has this:
(§1) Whether the compound of formula (II) or Bortezomib alters proteasome activity in normal lymphocytes and skin fibroblasts was also examined.

For data set [2], the target named is proteasome β-5, β-1, β-2 subunits in MM.1S cells (Homo sapiens, UniProt P28072+P28074+Q99436). The class given is cell-based. The note with it: even higher doses; data not shown. The method, then:
In vivo determination of proteasome activity was conducted using a competition experiment with Dansyl-Ahx3L3VS, which covalently modifies all active proteasome subunits. This inhibitor contains a dansyl sulfonamide hexanoyl hapten that can be visualized by immunoblotting using antibodies against the dansyl moiety. […] Cells were lysed by incubating them for 30 mins in NP-40 lysis buffer (50 mM Tris-HCl pH 8.0, 150 mM NaCl, 1% NP-40), followed by 5 min. centrifugation to remove membrane fractions, nuclei, and cell debris. […] Blots were developed by enhanced chemiluminescence (Western Lightning, Perkin-Elmer).

A further data set deals with Bax. The experiment in a line: Immunoblot of Bax in mitochondrial protein extracts. The class given is cell-based, human. The conditions noted are these: MM.1S cells; FIG. 12E. The method, then: Immunoblot analysis was performed using antibodies to cytochrome-c, Smac, Caspase-8, -9, or -3 (Cell Signaling, Beverly, Mass.), tubulin (Sigma, St. Louis, Mo.), PARP, Hsp60, or Bax (BD Bioscience Pharmingen, San Diego, Calif.). Blots were developed by enhanced chemiluminesence (ECL; Amersham, Arlington Heights, Ill.).
Previous studies have established that Bax induces mitochondrial apoptotic pathway. See Wei, M. C., Zong, W. X., Cheng, E. H., Lindsten, T., Panoutsakopoulou, V., Ross, A. J., Roth, K. A., MacGregor, G. R., Thompson, C. B. & Korsmeyer, S. J. (2001) Science 292, 727-30 and Lei, K., Nimnual, A., Zong, W. X., Kennedy, N. J., Flavell, R. A., Thompson, C. […] Thus, whether MM cell apoptosis induced by the compound of formula (II) (X=Cl) correlates with alterations in Bax was evaluated. […] Blots are representatives of three independent experiments.

In the next data set the test system is RPMI 8226 MM cells. The class given is in vivo, beige-nude-xid (BNX) mice. The conditions noted are these: i.v. twice weekly (compound 0.15 mg/kg; Bortezomib 1.0 mg/kg).
The next data set deals with proteasome (Homo sapiens, UniProt P28074). The conditions noted are these: Goldberg & Rock 2002; Adams 2004; cited from earlier work.
proteasome, sequence (P28074 60-263): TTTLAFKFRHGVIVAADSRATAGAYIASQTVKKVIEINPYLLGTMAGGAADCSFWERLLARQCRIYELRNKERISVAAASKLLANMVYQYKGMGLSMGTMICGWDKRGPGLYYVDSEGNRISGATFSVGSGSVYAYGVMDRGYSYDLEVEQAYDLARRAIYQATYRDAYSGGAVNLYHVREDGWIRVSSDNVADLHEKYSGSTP
Data set [3] concerns Bcl2-transfected MM.1S cells. As to the kind of experiment: MTT viability of Bcl2-transfected MM.1S cells. The method, then:
Bcl2 confers resistance to conventional therapies in cancer cells, including MM. […] Bcl2 can modestly attenuate Bortezomib-induced apoptosis. Thus, whether ectopic expression of Bcl2 in MM.1S cells affects responsiveness to the compound of formula (II) (X=Cl) was evaluated. MM.1S cells were stably transfected with Bcl2 construct and analyzed for alterations in cell viability using an MTT assay. […] Results are mean±SD of three independent experiments.
During apoptosis Bax neutralizes the antiapoptotic function of Bcl-2, thereby facilitating the cyto-c release and caspase-9 activation. Bcl-2 also confers drug resistance in cancer cells, including MM, and provides partial protection against Bortezomib-induced killing. Therefore, whether ectopic expression of Bcl-2 in MM.1S cells affects the ability of the compound of formula (II) or Bortezomib to trigger cytotoxicity and postmitochondrial apoptotic signaling in MM cells was evaluated.

For data set [4], the system named is MM.1S cells. As to the kind of experiment: cells. The text has this:
MM.1S cells were also transiently transfected using Cell line Nucleofecto kit V, according to the manufacturer's instructions (Amaxa Biosystems, Germany), with vector alone, DN-caspase-8, DN-caspase-9, or DN-FADD and cotransfected with vector containing green fluorescence protein (GFP) alone.
It was next determined whether inhibition of an upstream signaling pathway that leads to caspase-8 activation affects the response to the compound of formula (II) (X=Cl) or Bortezomib. The Fas-associated death domain (FADD) protein is an important part of the deathinducing signaling complexes (DISCs) that assemble upon engagement of TNF receptor family members, such as Fas, resulting in proteolytic processing and autoactivation of pro-caspase-8. Since both the compound of formula (II) (X=Cl) and Bortezomib trigger caspase-8 activation, the role of FADD during this event in MM cells was evaluated using DN-FADD.

Data set [5] deals with Lymphocytes from five healthy donors. As to the kind of experiment: MTT cytotoxicity on normal lymphocytes. The conditions noted are these: human, 72 h. The text has this:
Bortezomib therapy is associated with toxicity in patients. […] Results are the mean±SD of three independent experiments.

Data set [6] deals with Mouse embryonic fibroblast (MEFs). As to the kind of experiment: MTT viability of MEFs with wild-type or knock-out Bax. The class given is cell-based. The note with it: 48 h; FIG. 12F.
Text: Results are mean±SD of three independent experiments (P<0.05).
Data set [7] relates to Chymotrypsin-like proteasome activity. The class given is cell-based, human. The note with it: data not shown.
Text: as §1

For data set [8], the system named is MM.1S cells. The experiment in a line: MTT viability of MM.1S cells with or without rhIL-6 or rhIGF-I. The note with it: human, 24 h. The class given is cell-based, human. The text has this:
Adhesion of MM cells to BMSCs induces IL-6 and IGF-I secretion from BMSCs, which not only regulates the growth of MM cells, but also protects against chemotherapy. See Hardin, J., MacLeod, S., Grigorieva, I., Chang, R., Barlogie, B., Xiao, H. & Epstein, J. (1994) Blood 84, 3063-70 and Chauhan, D., Kharbanda, S., Ogata, A., Urashima, M., Teoh, G., Robertson, M., Kufe, D. W. & Anderson, K. C. […] Thus, whether rhIL-6 or rhIGF-I inhibits apoptosis in MM cells induced by the compound of Formula (II) (X=Cl) was evaluated. […] At 24 h cells were harvested and viability analyzed by MTT assays. […] Median viability was 51±2.1% after treatment with Dex and 92±5.5% for Dex+rhIL-6 (P=0.05, as determined by one-sided Wilcoxon rank-sum test). Results are mean±SD of three independent experiments. […] In contrast and as in other studies, both IL-6 and IGF-I block Dex-induced decreased MM.1S cell viability. See Chauhan, D., Hideshima, T. & Anderson, K. C. (2003) Int J Hematol 78, 114-20 and Mitsiades, C. S., Mitsiades, N., Poulaki, V., Schlossman, R., Akiyama, M., Chauhan, D., Hideshima, T., Treon, S. P., Munshi, N. C., Richardson, P. G. & Anderson, K. C.

Consider `CC(C)C[C@H](NC(=O)[C@H](Cc1ccccc1)NC(=O)c1cnccn1)B(O)O` [Bortezomib, reference compound], for which the IC50 in data set [1] was 15 nM; with MM.1S cells [4] (Homo sapiens, MM1.S), 5 nM. Besides, in data set [2], the “inhibition of the β-2 subunits” value is “does not inhibit the β-2 subunits”. The “Bax levels in mitochondria” value in the data set on Bax is “significant accumulation of Bax in mitochondria”. Also, in the data set on RPMI 8226 MM cells (p<0.01), the tumor progression result was “significantly reduced the tumor progression”. Further, the survival result in the data set on RPMI 8226 MM cells (p=0.0137) was “prolonged survival”. For the same compound, at proteasome, the proteasome activities inhibited entry is reported as “inhibit only chymotrypsin-like proteasome activity”. In addition, in [3] (Bcl-2- versus vector-transfected, FIG. 14A), the “increased survival of Bcl-2 transfectants” value came to 21%. The “decrease of caspase-9 cleavage in Bcl-2-transfected cells by densitometry” value in data set [3] (versus vector-transfected cells, FIG. 14B) came out at 3 fold. Moreover, in the data set with MM.1S cells [4] (FIG. 12D), the “increase in survival of DN-FADD-transfected compared to vector-transfected cells” value is listed as 16%. Also, the “effect of caspase-8 blockade on triggered cell death” value in the data set on MM.1S cells [4] (IETD-fmk, FIG. 12A) is “equally blocked”. The “effect of caspase-9 inhibition on decreased viability” value with MM.1S cells [4] (LEHD-FMK, FIG. 12A) is given as “equally blocked”. Besides, the “survival of DN-caspase-8-transfected compared to DN-caspase-9-transfected cells” value in the data set with MM.1S cells [4] (treated at IC50, FIG. 12B) is recorded as “increased the survival to a similar extent”. Further, in the data set on MM.1S cells [4] (z-VAD-fmk, FIG. 12A), the “effect of caspase-3 inhibition on induced apoptosis” value is “markedly abrogates”. Also, the “decrease in viability of normal lymphocytes” value in data set [5] came out at 50%. Further, the “cell viability in Bax (WT) and Bax (knock-out) MEFs” value in data set [6] is listed as “deletion of Bax confers significant resistance”. The “inhibition of Chymotrypsin-like proteasome activity” value in data set [7] (20 nM) was 59±11%. In addition, in [7] (treatment at the IC50), the “proteasome activity in CCD-27sk fibroblasts” value is “inhibited proteasome activity”.
In the data set with MM.1S cells [8], `C[C@@H]1C[C@H]2[C@@H]3CCC4=CC(=O)C=C[C@]4(C)[C@@]3(F)[C@@H](O)C[C@]2(C)[C@@]1(O)C(=O)CO` [Dex, reference compound] yielded a median cell viability of 51±2.1%.
